From paper PMC11522292, “TamGen: drug design with target-aware molecule generation through a chemical language model” (Nature Communications, 2024)

Key:
ClpP1P2 complex in Mtb [1] = target: T1, ClpP1P2 complex in Mtb (Mycobacterium tuberculosis, UniProt P9WPC5); assay: ClpP1P2 peptidase activity assay, dose-response and IC50 determination; assay type: biochemical
Procedure: (§1) ClpP1P2 complex in Mtb can catalyze the hydrolysis of small peptides. Following previous protocols, we measure the in vitro inhibition of ClpP peptidase activity by monitoring the cleavage of fluorogenic peptide Ac-Pro-Lys-Met-AMC[65]–[67].
(§2) The solution is pre-incubated at room temperature for 2 hours. Then, 20 μL substrate buffer with Ac-Pro-Lys-Met-AMC is added (final concentration of Ac-Pro-Lys-Met-AMC is 10 μM; reaction buffer is the same with the above). Fluorescence (Ex/Em: 380/ 440 nm) is recorded for 120 min at 37 °C.
To determine IC50, candidate inhibitors are assayed at 9 or 10 gradient concentrations. […] IC50 is determined by the change of recorded fluorescence (as RFU) and gradient dilution of inhibitors concentration. Non-linear fit (log(inhibitor) vs. normalized response) is used for IC50 curve fitting.

ClpP1P2 complex in Mtb [2] = target: T1, ClpP1P2 complex in Mtb; assay: ClpP1P2 peptidase activity assay, single-dose response; assay type: biochemical; settings: read-out: Inhibition rate relative to Bortezomib
Procedure: as §1, §2

[3] = source data Figure4b, screening hits
[4] = source data Figure4b, synthesized compounds

T1 sequence (P9WPC5 whole entry, looked up, one chain of several): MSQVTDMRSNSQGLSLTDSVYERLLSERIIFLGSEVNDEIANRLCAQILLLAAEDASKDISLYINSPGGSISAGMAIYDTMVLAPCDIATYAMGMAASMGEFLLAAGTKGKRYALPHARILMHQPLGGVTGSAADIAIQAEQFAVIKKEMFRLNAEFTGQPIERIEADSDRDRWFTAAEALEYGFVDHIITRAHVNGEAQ

SMILES: O=C(Nc1ccc(F)cc1)Nc1ccc(Br)c(C(F)(F)F)c1 [Analog-001]
- IC50 (ClpP1P2 complex in Mtb [1]; [3]): 17.2 µM

SMILES: O=C(Nc1ccccc1F)Nc1ccccc1NC(=O)c1ccccc1Cl [Analog-002]
- IC50 (ClpP1P2 complex in Mtb [1]; [3]): 19.9 µM

SMILES: NS(=O)(=O)c1ccc(NC(=O)Nc2cc(Cl)cc(Cl)c2)cc1 [Analog-003]
- IC50 (ClpP1P2 complex in Mtb [1]; [3]): 10.1 µM
- inhibition at 20 µM (ClpP1P2 complex in Mtb [2]): 48%

SMILES: Oc1c(Cc2ccccc2)ccc2ccccc12 [Analog-004]
- IC50 (ClpP1P2 complex in Mtb [1]; [3]): 19.6 µM

SMILES: CN(C)S(=O)(=O)c1ccc(C(=O)N2C(=O)c3cccc(N)c3C2=O)cc1 [Analog-005]
- IC50 (ClpP1P2 complex in Mtb [1]; Mtb ClpP, dose-response assay, Fig. 4b and text): 1.9 µM
- IC50 (ClpP1P2 complex in Mtb [1]; [3]): 1.88 µM

SMILES: NS(=O)(=O)c1ccc(NC(=O)Nc2ccc(Cl)c(C(F)(F)F)c2)cc1 [Syn-A003-01]
- IC50 (ClpP1P2 complex in Mtb [1]; [4]): 20.3 µM

SMILES: Cc1ccc(C(=O)N2C(=O)c3ccccc3C2=O)cc1 [Syn-A005-01]
- IC50 (ClpP1P2 complex in Mtb [1]; [4]): 5.34 µM

SMILES: CN(C)S(=O)(=O)c1ccc(C(=O)N2C(=O)c3ccccc3C2=O)cc1 [Syn-A005-02]
- IC50 (ClpP1P2 complex in Mtb [1]; [4]): 3.4 µM
